Holding throughout (type): cell-based, human
One test concerns CD41+ and CD41− cells. Kind of test: Label-free MS quantitation of cytoskeletal proteome. The protocol: BM CD34^+-derived cells at day 7 were stained with CD41-FITC at room temperature for 1 h, followed by with Annexin-V-PE (BD Biosciences) in the Annexin-V staining medium for 15 min. Cells were then resuspended in 2% FBS/PBS with 7-AAD. Viable HSC-containing cell populations and differentiated MK lineages at day 7 in culture were separated on the basis of CD41 surface expression by cell sorting performed on a FACS Vantage machine (Becton Dickinson). Dead cells stained with 7-AAD and Annexin-V were excluded from sorting. Sorted cells were directly processed for mass spectrometry (MS) analyses (FIG. 5).
Samples were prepared for mass spectrometry by gel-free (Wiśniewski et al., 2009, Nat Methods, 6:359-362) or in-gel digestion methods. […] Label-free relative peptide quantitation was performed on proportional peak fingerprints (ProPF) of proteins with in-house software coded in Mathematica (Wolfram Research). […] Proteomes from primary MKs were analyzed using this unique method and a selected group of proteins were validated by antibodies (FIG. 13D). COS cells transfected with GFP-NMM-IIA and siRNA […] knockdown were also analyzed by the method, and show increased NMM-IIA expression by 17-fold and partial knockdown (˜40%) of NMM-IIA compared with cells transfected with GFP and scrambled siRNA. There was minimal perturbation to other proteins detected.

Another test deals with BM CD34+-derived cells. As to the kind of experiment: Live cell imaging of cell division. The protocol: At least 20,000 BM CD34^+-derived cells were put into Ibidi μ-slide VI (Ibidi GmbH) in cell culture medium. Analysis was done in an insulated chamber maintained at 37° C., 5% CO2. A series of images were collected every 5 min for 18 to ˜24 h with an Olympus IX70 inverted microscope with 300 W Xenon lamp illumination using 10× or 20× objectives under bright field. Image stacks were further analyzed by ImageJ to analyze cell division with or without blebbistatin treatment.

Test [1] concerns CD34+-derived cells (HSC, MPP, CPP). Kind of test: HSC/P subpopulation analysis by flow cytometry. The protocol: Freshly purified bone marrow-derived human CD34^+ cells were obtained from either the Penn Xenograft Core Facility or AllCells (Emeryville, Calif.). Cells from at least 20 different donors were used in this study. Purity of the samples (>98%) was confirmed by flow cytometry with monoclonal antibody against human CD34. All experiments were performed in HSC expansion media (StemLine, Sigma) supplemented with 1× antibiotics, 20% BIT 9500 Serum Substitute (StemCell Technologies), 2 mM […] (Gibco) and the following human recombinant cytokines: SCF (100 ng/ml) and Tpo (100 ng/ml). In some occasions, the media was also supplemented by G-CSF (100 ng/ml), epidermal growth factor (EGF, 100 ng/ml), transforming growth factor beta 1 (TGF-beta1, 100 ng/ml), erythropoietin (EPO, 1 U/ml) and interleukin-3 (IL-3, 10 ng/ml). All cytokines were purchased from R&D Systems. After cells were cultured for 4 days, they were treated with different doses of cellular contractility inhibitors, including (±)-Blebbistatin (Bleb) (EMD Biosciences) and/or CH-223191 (Sigma) for indicated durations of up to 3 days. Cells were cultured at 37° C. in 5% CO2.
Surface marker analysis for HSC/Ps was done on either a LSR II flow cytometer or FACSCalibur (Becton Dickinson). […] Cells isolated from the bone marrow stained for 1 hr with APC anti-mouse CD47 (miap301, AbD Serotec), FITC anti-human CD47 (BD Biosciences), and PE anti-human CD11b, PE anti-human CD19 (both from BD Biosciences), or PE anti-human Glycophorin A (Invitrogen). Plts and RBCs were analyzed by staining with PE anti-mouse CD41 (eBioscience) and FITC anti-human CD41 (eBioscience) for 20 min, followed by analysis on FACSCalibur on log forward and side scatter scales.

On to `Cc1ccc2c(c1)C(=O)C1(O)CCN(c3ccccc3)C1=N2` (racemic) [blebbistatin, (±)-blebbistatin], for which the detected proteins up-regulated in the test with CD41+ and CD41− cells (CD41+ cells, treated samples) worked out at 75%. The “indicated proteins with increased expression” value with CD41+ and CD41− cells (CD41− cells, 3 d treatment) was determined as 20%. Also, the “cells showing reversal of cytokinesis” value in the test with BM CD34+-derived cells is about 80%. Also, in test [1], the “change in primitive HSC cell number” value is given as under 50%. Moreover, in test [1] (20 μM, 2N cells), the “enrichment for LT-HSCs” value worked out at 15.6±4.1 fold. The half-maximal inhibitory concentration (IC50) in test [1] (2N cells, n≥4 donors, read-out: CPP and MPP number IC50) is about 10.5 µM. In addition, in test [1] (3-day treatment), the CPP depletion was 31 fold; the “CPP depletion, range” value is listed as 15-48 fold; the “HSC enrichment, average” value came out at 16 fold; the “HSC enrichment, range” value is 5-24 fold. In test [1] (3-day treatment), the MPP depletion came out at 1.8 fold and the “MPP depletion, range” value is reported as 1.3-2.3 fold. Also, the “HSC number, mean” value in test [1] (normalized to initial cell input) came out at 646±77. Also, in test [1] (on plastic), the “HSC-to-MPP ratio vs untreated cells” value was about 4 fold. In test [1] (read-out: inhibition constant Ki, MPPs and CPPs), the Ki is about 10.5 µM.
